The text below walks through data of paper PMC9177618 (Structure (London, England : 1993), 2022).

Counter-ions that a name gives are not always drawn.

Data set [1] has as its target full-length DNMT1 (Homo sapiens, UniProt P26358). Nature of the data set: radioactive scintillation proximity assay. The data set is classed as biochemical.
For data set [2], the system named is mouse embryonic stem cells. To be noted: ref Portilho et al., 2021; cited from earlier work.
For data set [3], the system named is Dnmt1. To be noted: murine pre-implantation Dnmt3a/3b knockout embryos; ref Haggerty et al., 2021; cited from earlier work.
Data set [4] concerns more than 300 protein kinases and 30 other methyltransferases (MTases), including DNMT3a and 3b. To be noted: ref Pappalardi et al., 2021; cited from earlier work.
In data set [5] the test system is acute myeloid leukemia. The conditions noted are these: mouse models of acute myeloid leukemia; ref Pappalardi et al., 2021; cited from earlier work.
Data set [6] concerns cancer cell. The conditions noted are these: in vitro; ref Pappalardi et al., 2021; cited from earlier work.

Sequence of full-length DNMT1 (P26358 whole entry): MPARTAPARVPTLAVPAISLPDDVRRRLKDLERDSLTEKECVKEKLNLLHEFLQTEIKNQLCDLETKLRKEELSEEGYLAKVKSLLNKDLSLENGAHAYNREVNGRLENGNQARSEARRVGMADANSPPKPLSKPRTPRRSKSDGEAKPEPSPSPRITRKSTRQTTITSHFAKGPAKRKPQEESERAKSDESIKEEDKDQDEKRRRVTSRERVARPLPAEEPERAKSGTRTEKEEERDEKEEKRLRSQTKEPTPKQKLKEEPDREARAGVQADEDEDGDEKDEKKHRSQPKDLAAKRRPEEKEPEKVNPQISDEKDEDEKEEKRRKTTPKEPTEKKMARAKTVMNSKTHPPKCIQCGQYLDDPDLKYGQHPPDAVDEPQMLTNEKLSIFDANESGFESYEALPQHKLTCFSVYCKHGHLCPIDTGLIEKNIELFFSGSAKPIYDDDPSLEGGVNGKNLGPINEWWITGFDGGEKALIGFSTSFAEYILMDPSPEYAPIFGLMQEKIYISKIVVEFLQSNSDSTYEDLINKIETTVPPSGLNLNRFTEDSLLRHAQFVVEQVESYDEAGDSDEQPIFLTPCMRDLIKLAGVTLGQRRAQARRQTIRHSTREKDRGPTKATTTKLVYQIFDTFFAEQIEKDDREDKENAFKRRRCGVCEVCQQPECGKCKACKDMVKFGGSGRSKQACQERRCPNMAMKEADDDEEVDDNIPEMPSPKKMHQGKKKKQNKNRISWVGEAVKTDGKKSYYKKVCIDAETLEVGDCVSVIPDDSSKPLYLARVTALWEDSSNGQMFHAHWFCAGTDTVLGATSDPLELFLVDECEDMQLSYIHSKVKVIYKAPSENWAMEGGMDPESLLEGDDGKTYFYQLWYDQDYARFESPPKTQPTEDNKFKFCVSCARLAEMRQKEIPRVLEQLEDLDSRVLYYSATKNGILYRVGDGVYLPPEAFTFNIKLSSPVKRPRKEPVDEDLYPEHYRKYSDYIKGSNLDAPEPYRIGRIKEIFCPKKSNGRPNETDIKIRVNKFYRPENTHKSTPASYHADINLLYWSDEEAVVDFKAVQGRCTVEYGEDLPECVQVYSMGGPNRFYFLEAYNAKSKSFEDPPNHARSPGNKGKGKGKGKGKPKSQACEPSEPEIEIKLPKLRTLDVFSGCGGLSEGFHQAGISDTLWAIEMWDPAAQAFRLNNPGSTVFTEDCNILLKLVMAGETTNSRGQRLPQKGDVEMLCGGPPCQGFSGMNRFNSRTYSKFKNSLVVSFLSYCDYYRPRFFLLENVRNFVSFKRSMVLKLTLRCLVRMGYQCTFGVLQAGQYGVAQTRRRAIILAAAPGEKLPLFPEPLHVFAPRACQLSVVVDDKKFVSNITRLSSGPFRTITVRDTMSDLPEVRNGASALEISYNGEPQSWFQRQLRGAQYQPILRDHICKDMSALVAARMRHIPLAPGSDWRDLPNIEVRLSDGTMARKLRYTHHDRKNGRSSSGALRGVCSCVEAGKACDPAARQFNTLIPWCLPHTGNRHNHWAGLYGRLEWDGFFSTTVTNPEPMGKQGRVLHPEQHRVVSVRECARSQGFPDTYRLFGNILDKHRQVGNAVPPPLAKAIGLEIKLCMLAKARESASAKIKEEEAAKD

Broadly, the IC50 is the midpoint of a concentration-inhibition curve. On to `CCc1c(C#N)c(SC(C(N)=O)c2ccccc2)nc(N2CCCN(CCO)CC2)c1C#N` (stereo not shown) [GSK3543105, 2-((3,5-dicyano-4-ethyl-6-(4-(2-hydroxyethyl)-1,4-diazepan-1-yl)pyridin-2-yl)thio)-2-phenylacetamide], for which, in data set [1], the IC50 fell in the range of 30 to 60 nM.

On to `CCc1c(C#N)c(SC(C(N)=O)c2ccccc2)nc(N(C)C)c1C#N` (stereo not shown) [GSK3484862], for which, in data set [2], the demethylation entry is on record as “demethylation in mouse embryonic stem cells, in a level similar to that observed with Dnmt1 knockouts” and the non-specific toxicity result is on record as “minimal non-specific toxicity”. Besides, the “inhibition of Dnmt1” value in data set [3] is “inhibits Dnmt1”.

For `CCc1c(C#N)c(SCc2ccc(CNC(=O)CN)cc2)nc(N2CCCN(C)CC2)c1C#N` [GSK3735967, 2-amino-N-(4-(((3,5-dicyano-4-ethyl-6-(4-methyl-1,4-diazepan-1-yl)pyridin-2-yl)thio)methyl)benzyl)acetamide], in data set [1], the IC50 lay within 30 to 60 nM.

Regarding `CCc1c(C#N)c(SC(C(N)=O)c2ccc(C(F)(F)F)cc2)nc(N2CCC(N)CC2)c1C#N` (stereo not shown) [GSK3852279, 2-((6-(4-aminopiperidin-1-yl)-3,5-dicyano-4-ethylpyridin-2-yl)thio)-2-(4-(trifluoromethyl)phenyl)acetamide trifluoroacetate], the IC50 in data set [1] fell in the range of 30 to 60 nM.

In the case of `CCc1c(C#N)c(N[C@@H](C(N)=O)c2ccccc2)nc(N2CCC(N)CC2)c1C#N` [GSK3830334, (R)-2-((6-(4-aminopiperidin-1-yl)-3,5-dicyano-4-ethylpyridin-2-yl)amino)-2-phenylacetamide], the “reduced potency relative to the ~30-60 nM compounds” value in data set [1] (full-length DNMT1, 40-mer hemimethylated DNA duplex, radioactive SPA) is listed as 3-6 fold.

For `CCc1c(C#N)c(SC(C(N)=O)c2ccccc2)nc(N2CCC(N)CC2)c1C#N` (stereo not shown) [GSK3685032], the “selectivity for DNMT1” value in data set [4] was “selective for DNMT1 over more than 300 protein kinases and 30 other methyltransferases”. Further, the “tumor regression and survival compared with decitabine (Dacogen)” value in data set [5] is recorded as “superior to decitabine”. Besides, the “inhibition of cancer cell growth” value in data set [6] is reported as “inhibits cancer cell growth”.
